This passage reports melting point and IC50 results from patent US7067537B2, “Substituted thiazole derivatives bearing 3-pyridyl groups, process for preparing the same and use thereof” (Takeda Pharmaceutical Company Limited, priority 2000, dated 2006).

Structures can show the parent of a compound that is named as a salt.

System in the first data set: not given
Test: not given
Settings: not given
Compound `CC(=O)Nc1cccc(-c2csc(-c3cnccc3C(F)(F)F)n2)c1.Cl` yielded a melting point of 154 to 155 °C. Compound `CS(=O)(=O)Nc1ccc(-c2csc(-c3cnccc3C(F)(F)F)n2)cc1.Cl` displayed a melting point of 205 to 207 °C. On the same count and under the same terms, next, `COc1cccc(-c2csc(-c3cccnc3)n2)c1` (as salt: HBr) [Compound 49]: 231 to 233 °C. For the compound `Fc1ccc(-c2nc(-c3cccnc3)cs2)cc1` (as salt: HBr) [Compound 136], the melting point is 225 to 227 °C. On the same count and under the same terms, next, `COc1ccc(-c2csc(-c3cnccc3C(F)(F)F)n2)cc1` (as salt: HCl) [Compound 64]: 93 to 95 °C. The compound `COc1ccncc1-c1nc(-c2ccc(C)cc2C)cs1` (as salt: HCl) [Compound 85] registered a melting point of 154 °C. Same read-out and setting: next, `Cc1ccncc1-c1csc(-c2ccc(F)cc2)n1` (as salt: HCl) [Compound 137, 3-[2-(4-fluorophenyl)-1,3-thiazol-4-yl]-4-methylpyridine]: 180 to 183 °C; `CS(=O)(=O)Nc1cccc(-c2csc(-c3cnccc3C(F)(F)F)n2)c1` (as salt: hydrochloride) [Compound 161, N-(3-{2-[4-(trifluoromethyl)pyridin-3-yl]-1,3-thiazol-4-yl}phenyl)methanesulfonamide]: 162 to 165 °C; `FC(F)(F)c1ccncc1-c1nc(-c2ccc(Br)cc2)cs1` [Compound 53]: 69 to 71 °C. In turn, `Cc1ccncc1-c1nc(-c2ccc(Cl)cc2)cs1` [Compound 74, 3-[4-(4-chlorophenyl)-1,3-thiazol-2-yl]-4-methylpyridine] displayed a melting point of 119 °C. Still for that read-out and setting: next, `Cc1ccncc1-c1nc(-c2ccc(F)cc2)cs1` [Compound 78, 3-[4-(4-fluorophenyl)-1,3-thiazol-2-yl]-4-methylpyridine]: 129 °C. Turning to `Cc1ccc(-c2csc(-c3cnccc3C)n2)cc1` [Compound 103], the melting point stood at 98 °C. Still for that read-out and setting: next, `Cc1ccncc1-c1csc(-c2ccc(S(N)(=O)=O)cc2)n1` [Compound 135, 4-[4-(4-methyl-pyridin-3-yl)-1,3-thiazol-2-yl]benzenesulfonamide]: 192 to 195 °C. Still for that read-out and setting: next, `NC(=O)CNc1ccncc1-c1nc(-c2ccc(Cl)cc2)cs1` [Compound 144]: 202 °C; `CC(C)(O)c1ccncc1-c1nc(-c2ccc(Cl)cc2)cs1` [Compound 145, 2-{3-[4-(4-chlorophenyl)-1,3-thiazol-2-yl]pyridin-4-yl}propan-2-ol]: 146 °C. In turn, `CN(C)C(=O)c1ccncc1-c1nc(-c2ccc(Cl)cc2)cs1` [Compound 146, 3-[4-(4-chlorophenyl)-1,3-thiazol-2-yl]-N,N-dimethylisonicotinamide] displayed a melting point of 195 °C. Still for that read-out and setting: to `NC(=O)c1ccncc1-c1nc(-c2ccc(Cl)cc2)cs1` [Compound 147] belongs 201 °C; to `CNC(=O)c1ccncc1-c1nc(-c2ccc(Cl)cc2)cs1` [Compound 148], 205 °C.

`Cc1ccncc1-c1nc(-c2ccc(Cl)cc2)c(Cl)s1` [Compound 150, 3-[5-chloro-4-(4-chlorophenyl)-1,3-thiazol-2-yl]-4-methylpyridine]: the melting point turned out to be 146 °C.

On to `Cc1ccc(-c2nc(-c3cnccc3C)sc2F)cc1` [Compound 153, 3-[5-fluoro-4-(4-methylphenyl)-1,3-thiazol-2-yl]-4-methylpyridine], for which the melting point amounted to 96 °C.

Regarding `Cc1ccncc1-c1nc(-c2ccc(S(N)(=O)=O)cc2)cs1` [Compound 154, 4-[2-(4-methylpyridin-3-yl)-1,3-thiazol-4-yl]benzenesulfonamide], the melting point is 219 °C. Compound `NS(=O)(=O)c1ccc(-c2csc(-c3cnccc3C(F)(F)F)n2)cc1` [Compound 155, 4-{2-[4-(trifluoromethyl)pyridin-3-yl]-1,3-thiazol-4-yl}benzenesulfonamide] had a melting point of 217 °C.

`Nc1ccc(-c2csc(-c3cnccc3C(F)(F)F)n2)cc1` [Compound 156, 4-{2-[4-(trifluoromethyl)pyridin-3-yl]-1,3-thiazol-4-yl}aniline]: the melting point fell in the range of 71 to 72 °C. Still for that read-out and setting: to `Cc1ccncc1-c1nc(-c2ccc(C(=O)O)cc2)cs1` [Compound 163, 4-[2-(4-methylpyridin-3-yl)-1,3-thiazol-4-yl]benzoic acid] belongs > 300 °C; to `NC(=O)c1ccc(-c2csc(-c3cnccc3C(F)(F)F)n2)cc1` [Compound 164, 4-{2-[4-(trifluoromethyl)pyridin-3-yl]-1,3-thiazol-4-yl}benzamide], 192 to 193 °C. Take `Cc1ccncc1-c1nc(-c2ccc(C(N)=O)cc2)cs1` [Compound 165, 4-[2-(4-methylpyridin-3-yl)-1,3-thiazol-4-yl]benzamide]: the melting point fell in the range of 222 to 225 °C. The compound `Cc1ccncc1-c1csc(-c2cccc(C(=O)N(C)C)c2)n1` [Example 27, N,N-dimethyl-3-[4-(4-methylpyridin-3-yl)-1,3-thiazol-2-yl]benzamide] yielded a melting point of 106 to 108 °C.

Consider `Cc1ccncc1-c1csc(-c2ccc(C(N)=O)cc2)n1` [Example 28, 4-[4-(4-methylpyridin-3-yl)-1,3-thiazol-2-yl]benzamide], for which the melting point lay in the range of 155 to 157 °C. Consider `CNC(=O)c1ccc(-c2nc(-c3cnccc3C)cs2)cc1` [Example 29, N-methyl-4-[4-(4-methylpyridin-3-yl)-1,3-thiazol-2-yl]benzamide], for which the melting point was found to be 115 °C. The same measure, in the same setting: next, `CNC(=O)c1ccc(C)c(-c2nc(-c3cnccc3C)cs2)c1` [Example 30, N, 4-dimethyl-3-[4-(4-methylpyridin-3-yl)-1,3-thiazol-2-yl]benzamide]: 140 to 143 °C; `Cc1ccncc1-c1csc(-c2cc(C(=O)N(C)C)ccc2C)n1` [Example 31, N,N,4-trimethyl-3-[4-(4-methylpyridin-3-yl)-1,3-thiazol-2-yl]benzamide]: 180 to 182 °C.

Take `Cc1ccncc1-c1csc(-c2cc(C(=O)N3CCCC3)ccc2C)n1` [Example 32, 4-methyl-3-{2-[2-methyl-5-(pyrrolidine-1-ylcarbonyl)phenyl]-1,3-thiazol-4-yl}pyridine]: the melting point was in the range of 149 to 150 °C. Turning to `CNC(=O)c1ccc(F)c(-c2nc(-c3cnccc3C)cs2)c1` [Example 33, 4-fluoro-N-methyl-3-[4-(4-methylpyridin-3-yl)-1,3-thiazol-2-yl]benzamide], the melting point was 195 to 196 °C. Compound `CNC(=O)c1cc(-c2nc(-c3cnccc3C)cs2)ccc1Cl` [Example 34, 2-chloro-N-methyl-5-[4-(4-methylpyridin-3-yl)-1,3-thiazol-2-yl]benzamide] returned a melting point of 127 to 129 °C.

The compound `CC(=O)Nc1ccc(-c2nc(-c3cnccc3C)cs2)cc1` [Example 36, N-{4-[4-(4-methylpyridin-3-yl)-1,3-thiazol-2-yl]phenyl}acetamide] returned a melting point of 205 to 207 °C. Turning to `Cc1ccncc1-c1csc(-c2cc(NC=O)ccc2C)n1` [Example 37, 4-methyl-3-[4-(4-methylpyridin-3-yl)-1,3-thiazol-2-yl]phenylformamide], the melting point was 127 to 129 °C. Still for that read-out and setting: to `CC(=O)Nc1ccc(C)c(-c2nc(-c3cnccc3C)cs2)c1` [Example 38, N-{4-methyl-3-[4-(4-methylpyridin-3-yl)-1,3-thiazol-2-yl]phenyl}acetamide] belongs 151 to 152 °C.

Another data set addresses T1, Rat C17,20-lyase (Rattus norvegicus, UniProt P11715).
T1 construct: The orchis was homogenized and centrifuged to prepare a microsome; from tissue; host or cells: testis (orchis) microsomes of 13-week-old male SD rat
T1 sequence (P11715 1-507): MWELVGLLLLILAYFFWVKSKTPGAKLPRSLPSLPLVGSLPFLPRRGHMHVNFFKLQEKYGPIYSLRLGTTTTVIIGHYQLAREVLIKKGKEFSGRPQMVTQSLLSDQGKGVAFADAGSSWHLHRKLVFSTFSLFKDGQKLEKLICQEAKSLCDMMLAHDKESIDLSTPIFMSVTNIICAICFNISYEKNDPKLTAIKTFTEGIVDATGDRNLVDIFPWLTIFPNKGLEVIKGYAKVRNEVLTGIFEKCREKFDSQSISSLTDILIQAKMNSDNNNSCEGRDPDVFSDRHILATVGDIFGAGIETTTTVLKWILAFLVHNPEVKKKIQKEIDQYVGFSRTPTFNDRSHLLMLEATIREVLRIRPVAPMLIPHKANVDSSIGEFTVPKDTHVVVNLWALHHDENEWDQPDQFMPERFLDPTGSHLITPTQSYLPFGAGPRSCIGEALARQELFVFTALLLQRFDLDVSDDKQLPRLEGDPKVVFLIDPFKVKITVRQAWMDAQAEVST
The data set can be described thus: Assay of steroid C17,20-lyase-inhibitory activity in rat (testis microsome, TLC of 3H-labelled products). The format is biochemical. The settings on record: microsome from orchis of 13-week-old male SD rat; [1.2-3H]-17α-hydroxyprogesterone 10 nM, NADPH; pH 7.4; 37° C., 7 min; read-out: In vitro enzyme inhibitory activity (IC50) Rat C17,20-lyase. On the procedure: Assay of Steroid C17,20-lyase-inhibitory Activity in Rat
The assay was performed according to The Prostate, Vol. 26, 140–150 (1995). The orchis was removed from 13-week-old male SD rat. The orchis was homogenized and centrifuged to prepare a microsome. The [1.2-^3H]-17α-hydroxyprogesterone having a final concentration of 10 nM, NADPH solution and the test compound were was dissolved in a 100 mM phosphate buffer solution (10 μl, pH 7.4). Microsome protein (7 μg/10 μl) was added and the mixture was incubated at 37° C. for 7 min. Ethyl acetate (40 μl) was added and the mixture was centrifuged, and the substrate and the product (androstenedione and testosterone) in the supernatant were separated by silica gel thin layer chromatography (TLC). The spot was detected and quantitatively assayed by a BAS 2000 bioimage analyzer. Taking the production amount when the test compound was not added (control) as 100%, the concentration (IC50) of the compound necessary for 50% inhibition of the product amount relative to the control was calculated.
Consider `COc1cccc(-c2csc(-c3cccnc3)n2)c1` [Compound 49], for which the IC50 came out at 33 nM.

Regarding `FC(F)(F)c1ccncc1-c1nc(-c2ccc(Br)cc2)cs1` [Compound 53], the 50% inhibitory concentration (IC50) is < 10 nM. For `COc1ccc(-c2csc(-c3cnccc3C(F)(F)F)n2)cc1` [Compound 64], the half-maximal inhibitory concentration (IC50) was < 10 nM. The same measure, in the same setting: next, `Cc1ccncc1-c1nc(-c2ccc(F)cc2)cs1` [Compound 78, 3-[4-(4-fluorophenyl)-1,3-thiazol-2-yl]-4-methylpyridine]: < 10 nM; `COc1ccncc1-c1nc(-c2ccc(C)cc2C)cs1` [Compound 85]: 30 nM. As for `Cc1ccc(-c2csc(-c3cnccc3C)n2)cc1` [Compound 103], the IC50 is < 10 nM. Turning to `Fc1ccc(-c2nc(-c3cccnc3)cs2)cc1` [Compound 136], the half-inhibitory concentration (IC50) is 14 nM.
